Laboratory results reported in patent US20220162191A1, “SMALL MOLECULE MODULATORS OF IL-17” (LEO PHARMA A/S, priority 2019, published 2022).

What follows are compounds tested against T1, human IL-17AA (Homo sapiens, UniProt Q16552) (assay: IL-8 release assay in human epithelial keratinocytes adult (HEKa)). Details: 3 ng/ml human IL-17AA + 10 ng/ml human TNFalpha, 68-72 h, IL-8 by HTRF, read-out: Rel EC50 L-8 release assay.
T1 construct: host or cells: HEK (human embryonic kidney) cells
T1 sequence (Q16552 24-155) 1: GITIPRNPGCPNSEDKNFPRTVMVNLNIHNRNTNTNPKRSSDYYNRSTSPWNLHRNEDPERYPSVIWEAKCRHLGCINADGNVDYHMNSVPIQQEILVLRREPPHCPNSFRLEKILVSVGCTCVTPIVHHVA
T1 sequence (Q16552 24-155) 2: T1 sequence (Q16552 24-155) 1
Format: cell-based
Procedure, shortened: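 IL-8 secretion, quantified by HTRF (665/620 nm) as percent of controls, served as the readout after 68–72 h culture of HEKa cells with compound plus IL-17AA (3 ng/ml final) and TNF-alpha (10 ng/ml final). Four-parameter logistic curves gave relative IC50 and Emax.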

Row | EC50 [nM] | SMILES
1 | 100 to 1000 | Cc1ncn(C)c1-c1ccc(NC(=O)[C@@H](NC(=O)C2(F)CC2)[C@@H]2CCCc3ccc(-c4ccc5c(c4)CNC5)cc32)cc1 [Example 43, N-[(1S)-2-[4-(3,5-dimethylimidazol-4-yl)anilino]-1-[(1R)-7-isoindolin-5-yltetralin-1-yl]-2-oxo-ethyl]-1-fluoro-cyclopropanecarboxamide]
2 | 100 to 1000 | Cc1ncn(C)c1-c1ccc(NC(=O)[C@H](Cc2cc(-c3ccnc(N4CCN(C)CC4)c3)ccc2Cl)NC(=O)OC2CC2)cc1 [Example 211, cyclopropyl N-[(1S)-1-[[2-chloro-5-[2-(4-methylpiperazin-1-yl)-4-pyridyl]phenyl]methyl]-2-[4-(3,5-dimethylimidazol-4-yl)anilino]-2-oxo-ethyl]carbamate]
3 | < 100 | Cc1n[nH]c(C)c1-c1ccc(NC(=O)[C@@H](NC(=O)c2ccnn2C)[C@@H]2CCc3ccc(-c4ccc5c(c4)CNC5)cc32)cc1 [Example 1, N-[(1S)-2-[4-(3,5-dimethyl-1H-pyrazol-4-yl)anilino]-1-[(1R)-6-isoindolin-5-ylindan-1-yl]-2-oxo-ethyl]-2-methyl-pyrazole-3-carboxamide]
4 | > 1000 | CC(C)n1cc(-c2ccc(Cl)c(C[C@H](NC(=O)C3CC(F)(F)C3)C(=O)Nc3ccc(-c4nncn4C)cc3)c2)ccc1=O [Example 291, N-[(1S)-1-[[2-chloro-5-(1-isopropyl-6-oxo-3-pyridyl)phenyl]methyl]-2-[4-(4-methyl-1,2,4-triazol-3-yl)anilino]-2-oxo-ethyl]-3,3-difluoro-cyclobutanecarboxamide]
5 | < 100 | Cc1n[nH]c(C)c1-c1ccc(NC(=O)[C@@H](NC(=O)c2ccnn2C)[C@@H]2CCCc3ccc(-c4ccc(=O)n(C(C)C)c4)cc32)cc1O [Example 46, N-[(1S)-2-[4-(3,5-dimethyl-1H-pyrazol-4-yl)-3-hydroxy-anilino]-1-[(1R)-7-(1-isopropyl-6-oxo-3-pyridyl)tetralin-1-yl]-2-oxo-ethyl]-2-methyl-pyrazole-3-carboxamide]
6 | 100 to 1000 | Cc1cnn(C)c1-c1ccc(NC(=O)[C@@H](NC(=O)c2ccnn2C)[C@@H]2CCc3ccc(-c4cc(N5C[C@@H]6C[C@H]5CO6)ncn4)cc32)cc1 [Example 386, N-[(1S)-2-[4-(2,4-dimethylpyrazol-3-yl)anilino]-1-[(1R)-6-[6-[(1S,4S)-2-oxa-5-azabicyclo[2.2.1]heptan-5-yl]pyrimidin-4-yl]indan-1-yl]-2-oxo-ethyl]-2-methyl-pyrazole-3-carboxamide]
7 | < 100 | Cc1n[nH]c(C)c1-c1ccc(NC(=O)[C@@H](NC(=O)c2ccnn2C)[C@@H]2CCc3ccc(-c4cnn(C(C)(C)CO)c4)cc32)cc1 [Example 11, N-[(1S)-2-[4-(3,5-dimethyl-1H-pyrazol-4-yl)anilino]-1-[(1R)-6-[1-(2-hydroxy-1,1-dimethyl-ethyl]pyrazol-4-yl]indan-1-yl]-2-oxo-ethyl]-2-methyl-pyrazole-3-carboxamide]
8 | > 1000 | Cn1cnnc1-c1ccc(NC(=O)[C@@H](NC(=O)C2(F)CC2)[C@@H]2CCCc3ccc(-c4ccnc(N5C[C@H]6C[C@@H]5CO6)c4)cc32)cc1 [Example 405, 1-fluoro-N-[(1S)-2-[4-(4-methyl-1,2,4-triazol-3-yl)anilino]-1-[(1R)-7-[2-[(1R,4R)-2-oxa-5-azabicyclo[2.2.1]heptan-5-yl]-4-pyridyl]tetralin-1-yl]-2-oxo-ethyl]cyclopropanecarboxamide]
9 | 100 to 1000 | CC(C)n1cc(-c2ccc(Cl)c(CC(NC(=O)OC3CCC3)C(=O)Nc3ccc(-c4nncn4C)cc3)c2)ccc1=O (centres unmarked) [Example 105, cyclobutyl N-[1-[[2-chloro-5-(1-isopropyl-6-oxo-3-pyridyl)phenyl]methyl]-2-[4-(4-methyl-1,2,4-triazol-3-yl)anilino]-2-oxo-ethyl]carbamate]
10 | 100 to 1000 | Cc1cnn(C)c1-c1ccc(NC(=O)[C@@H](NC(=O)c2ccnn2C)[C@@H]2CCc3ccc(-c4ccnc(C(C)C)n4)cc32)cc1 [Example 382, N-[(1S)-2-[4-(2,4-dimethylpyrazol-3-yl)anilino]-1-[(1R)-6-(2-isopropylpyrimidin-4-yl)indan-1-yl]-2-oxo-ethyl]-2-methyl-pyrazole-3-carboxamide]
11 | 100 to 1000 | Cn1cncc1-c1ccc(NC(=O)C(Cc2cc(-c3ccnc(N4CC(CO)C4)c3)ccc2Cl)NC(=O)c2ccnn2C)cc1 (centres unmarked) [Example 190, N-[1-[[2-chloro-5-[2-[3-(hydroxymethyl)azetidin-1-yl]-4-pyridyl]phenyl]methyl]-2-[4-(3-methylimidazol-4-yl)anilino]-2-oxo-ethyl]-2-methyl-pyrazole-3-carboxamide]
12 | 100 to 1000 | Cc1cnn(C)c1-c1ccc(NC(=O)[C@H](Cc2cc(-c3ccc(=O)n(C(C)C)c3)ccc2Cl)NC(=O)CCC(C)C)cc1 [Example 327, N-[(1S)-1-[[2-chloro-5-(1-isopropyl-6-oxo-3-pyridyl)phenyl]methyl]-2-[4-(2,4-dimethylpyrazol-3-yl)anilino]-2-oxo-ethyl]-4-methyl-pentanamide]
13 | 100 to 1000 | Cc1n[nH]c(C)c1-c1ccc(NC(=O)[C@@H](NC(=O)C2(F)CC2)[C@@H]2CCCc3ccc(-c4ccc(CN5C[C@H]6C[C@@H]5CO6)cc4)cc32)cc1 [Example 390, N-[(1S)-2-[4-(3,5-dimethyl-1H-pyrazol-4-yl)anilino]-1-[(1R)-7-[4-[[(1R,4R)-2-oxa-5-azabicyclo[2.2.1]heptan-5-yl]methyl]phenyl]tetralin-1-yl]-2-oxo-ethyl]-1-fluoro-cyclopropanecarboxamide]
14 | 100 to 1000 | Cc1cnn(C)c1-c1ccc(NC(=O)[C@@H](NC(=O)c2ccnn2C)[C@@H](c2cccc(-c3cc(N4C[C@@H]5C[C@H]4CO5)ncn3)c2)C2CC2)cc1 [Example 351, N-[(1S)-1-[(R)-cyclopropyl-[3-[6-[(1S,4S)-2-oxa-5-azabicyclo[2.2.1]heptan-5-yl]pyrimidin-4-yl]phenyl]methyl]-2-[4-(2,4-dimethylpyrazol-3-yl)anilino]-2-oxo-ethyl]-2-methyl-pyrazole-3-carboxamide]
15 | 100 to 1000 | CC(C)n1cc(-c2ccc(Cl)c(C[C@H](NC(=O)OC3CC3)C(=O)Nc3ccc(-c4nncn4C)cc3)c2)ccc1=O [Example 131, cyclopropyl N-[(1S)-1-[[2-chloro-5-(1-isopropyl-6-oxo-3-pyridyl)phenyl]methyl]-2-[4-(4-methyl-1,2,4-triazol-3-yl)anilino]-2-oxo-ethyl]carbamate]
16 | 100 to 1000 | Cc1[nH]ncc1-c1ccc(NC(=O)C(Cc2cc(-c3ccc(=O)n(C(C)C)c3)ccc2Cl)NC(=O)c2ccnn2C)cc1 (centres unmarked) [Example 89, N-[1-[[2-chloro-5-(1-isopropyl-6-oxo-3-pyridyl)phenyl]methyl]-2-[4-(5-methyl-1H-pyrazol-4-yl)anilino]-2-oxo-ethyl]-2-methyl-pyrazole-3-carboxamide]
17 | < 100 | Cc1cnn(C)c1-c1ccc(NC(=O)[C@H](Cc2cc(-c3ccc(=O)n(C(C)C)c3)ccc2Cl)NC(=O)C2(F)CCC2)cc1 [Example 331, N-[(1S)-1-[[2-chloro-5-(1-isopropyl-6-oxo-3-pyridyl)phenyl]methyl]-2-[4-(2,4-dimethylpyrazol-3-yl)anilino]-2-oxo-ethyl]-1-fluoro-cyclobutanecarboxamide]
18 | 100 to 1000 | Cc1cnn(C)c1-c1ccc(NC(=O)[C@H](Cc2cc(-c3ccc(=O)n(C(C)C)c3)ccc2Cl)NC(=O)CC2CC2)cc1 [Example 336, (2S)-3-[2-chloro-5-(1-isopropyl-6-oxo-3-pyridyl)phenyl]-2-[(2-cyclopropylacetyl)amino]-N-[4-(2,4-dimethylpyrazol-3-yl)phenyl]propanamide]
19 | 100 to 1000 | Cc1n[nH]c(C)c1-c1ccc(NC(=O)[C@H](Cc2cc(-c3cccc(CN)c3)ccc2Cl)NC(=O)c2ccnn2C)cc1 [Example 61, N-[(1S)-1-[[5-[3-(aminomethyl)phenyl]-2-chloro-phenyl]methyl]-2-[4-(3,5-dimethyl-1H-pyrazol-4-yl)anilino]-2-oxo-ethyl]-2-methyl-pyrazole-3-carboxamide]
20 | > 1000 | Cc1cnn(C)c1-c1ccc(NC(=O)[C@H](Cc2cc(-c3ccc(=O)n(C(C)C)c3)ccc2Cl)NC(=O)C(C)C)cc1 [Example 328, N-[(1S)-1-[[2-chloro-5-(1-isopropyl-6-oxo-3-pyridyl)phenyl]methyl]-2-[4-(2,4-dimethylpyrazol-3-yl)anilino]-2-oxo-ethyl]-2-methyl-propanamide]
21 | > 1000 | CC(C)n1cc(-c2ccc(Cl)c(CC(NC(=O)c3ccnn3C)C(=O)Nc3ccc(-c4nncn4C)cc3)c2)cc(C(F)(F)F)c1=O (centres unmarked) [Example 163, N-[1-[[2-chloro-5-[1-isopropyl-6-oxo-5-(trifluoromethyl)-3-pyridyl]phenyl]methyl]-2-[4-(4-methyl-1,2,4-triazol-3-yl)anilino]-2-oxo-ethyl]-2-methyl-pyrazole-3-carboxamide]
22 | < 100 | Cc1cc(-c2ccc3c(c2)[C@H]([C@H](NC(=O)C2(F)CC2)C(=O)Nc2ccc(-c4c(C)n[nH]c4C)cc2)CC3)nc(N2C[C@@H]3C[C@H]2CO3)n1 [Example 370, N-[(1S)-2-[4-(3,5-dimethyl-1H-pyrazol-4-yl)anilino]-1-[(1R)-6-[6-methyl-2-[(1S,4S)-2-oxa-5-azabicyclo[2.2.1]heptan-5-yl]pyrimidin-4-yl]indan-1-yl]-2-oxo-ethyl]-1-fluoro-cyclopropanecarboxamide]
23 | < 100 | Cc1n[nH]c(C)c1-c1ccc(NC(=O)[C@@H](NC(=O)c2ccnn2C)[C@@H]2CCCc3ccc(-c4cnn(C5CC5)c4)cc32)cc1 [Example 26, N-[(1S)-1-[(1R)-7-(1-cyclopropylpyrazol-4-yl)tetralin-1-yl]-2-[4-(3,5-dimethyl-1H-pyrazol-4-yl)anilino]-2-oxo-ethyl]-2-methyl-pyrazole-3-carboxamide]
